Experimental data: patent US8388936B2, “In vivo mitochondrial labeling using positively-charged nitroxide enhanced and gadolinium chelate enhanced magnetic resonance imaging” (MCW Research Foundation, Inc., priority 2008, dated 2013)

Assays:
[1] = for EPR signal of blood following treatment with ferricyanide: rat blood from catheter after dynamic EPR spectra
[2] = cited from earlier work
[3] = tested on: isolated rabbit heart mitochondria; test: In vitro localization in isolated mitochondria, MRI T1 analysis; settings: for T1 / enhancement of treated mitochondria (uptake): 10 uM, 37° C. 10 minutes, 3.0 T, compared to mitochondria alone
Experimental: The experiment was carried out on a Signa 3.0 T GE scanner (GE, Waukesha, Wis.) using a custom quadrature rf coil with a G10 fiberglass vial rack. Rabbit heart mitochondria were isolated. For verification of MR detectable mitochondrial accumulation of Mito-CP, isolated rabbit mitochondria were separated into […] eppendorf tubes each containing 40 μL of 15 mg/ml mitochondria. Six eppendorf tubes were prepared as indicated in Table 1 below (1-6), and three additional eppendorf tubes were prepared from the supernatant of tubes 4-6 (4b-6b): Note that succinate is needed to activate the mitochondrial respiratory chain, necessary for normal function. All tubes were incubated at 37° C. for 10 minutes. Immediately following incubation, all tubes were centrifuged at 1,000×g for 4 minutes at 4° C. The supernatant was then transferred into another eppendorf tube. The mitochondria in tubes 4-6 were re-suspended with the addition of […] of DPBS and allowed to settle naturally. […] To determine the specificity that Mito-CP has toward mitochondria, the compound carboxy-proxyl (CP) was used for comparison. CP is a 5-member nitroxide ring, depicted in FIG. 1, without the ten chain linking carbons and the triphenylphosphonium. […] These properties make CP an ideal control for specificity of Mito-CP toward mitochondria.

MCF7 cells = test: MTT cell viability assay; format: cell-based; settings: MCF7, 1-30 uM, 48 h
Experimental: (§1) Cell Culture. MCF7, MDA-MB-231 and MCF10-A cells were obtained from the American Type Culture Collection (ATCC) and cultured at 37° C. in humidified 95% air/5% CO2. MCF7 cells were maintained in MEM-alpha medium containing 10% FBS, L-glutamine (4 mM), penicillin (100 μg/ml), streptomycin (100 μg/ml), non-essential amino acids and sodium pyruvate. MDA-MB-23 were grown in Dulbecco's Modified Eagle's medium (DMEM) containing 10% FBS, L-glutamine (4 mM), penicillin (100 μg/ml), and streptomycin (100 μg/ml). MCF10-A cells were maintained in F-12 media supplemented with 20% FHS, hydrocortisone, cholera toxin, penicillin, streptomycin, and endothelial cell growth factor (ECGF). Typically, the day of the treatment, various concentrations of the nitroxides were added to the cells directly in the media.
(§2) The MTT assay (Sigma-Aldrich, Milwaukee, Wis.) was used to measure cell survival using quantitative colorimetry (λ=570 nm). This assay is based on the capacity of mitochondrial dehydrogenases to reduce MTT to form the insoluble formazan product. Cells were plated in 12-well plates and treated at pre-confluency with Mito-CP and CP (0-30 μM) in their respective media for 48 h. The culture media was removed after treatment, washed gently with DPBS and MTT (5 mg/ml in media) was added to each well, following incubation of the plates for 1 h at 37° C. The MTT solution was removed and the formazan product in each well was dissolved with dimethyl sulfoxide (DMSO). The optical density of each well was measured using an Agilent 8453 UV-Vis spectrometer at 570 nm.
(§3) MCF7, MDA-MB-231 and non-tumorigenic MCF10-A were grown to pre-confluency and treated with either Mito-CP or parent compound CP (1-30 uM) for 48 h and cell viability was measured using the MTT assay.

MDA-MB-231 cells = test: MTT cell viability assay; format: cell-based; settings: MDA-MB-231, 1-30 uM, 48 h
Experimental: as §1, §2, §3

[4] = tested on: non-tumorigenic MCF10-A breast epithelial cells; test: MTT cell viability assay; format: cell-based; settings: normal MCF10-A, 1-30 uM, 48 h
Experimental: as §1, §2, §3

[5] = T1 (longitudinal) relaxivity in buffered saline by spin echo inversion recovery MRI; format: physicochemical; settings: buffered saline (DPBS)
Experimental: T1 Relaxivity at 1.5 Tesla. The longitudinal relaxivities of CP and Mito-CP were determined using a LX 1.5 T GE Scanner (GE, Waukesha, Wis.) using an 8-channel head rf coil. Solutions of CP and Mito-CP were diluted with Dulbecco's Phosphate Buffered Saline (DPBS) to the following concentrations: 5.0 μM, 10.0 μM, 20.0 μM, 50.0 μM, 100.0 μM, 200.0 μM, 300.0 μM, 500.0 μM, 700.0 μM, 1.0 mM, 2.0 mM, 5.0 mM, 10.0 mM, and 20.0 mM. Longitudinal relaxation times (T1) for each solution and relaxivities (R1) for CP and Mito-CP were calculated using images from a standard spin echo sequence (TE=14 msec, TR=10 sec) at various inversion times (TI=50, 125 msec incrementing by 125 msec to 3500 msec and 4000 msec).
T1 Relaxivity at 3.0 Tesla. The longitudinal relaxivities of CP and Mito-CP were determined using a Signa 3.0 T GE Scanner (GE, Waukesha, Wis.) using a custom rf quadrature coil. Solutions of CP and Mito-CP were diluted with Dulbecco's Phosphate Buffered Saline (DPBS) to the following concentrations: 1.0 μM, 10.0 μM, 100.0 μM, 1.0 mM, 10.0 mM, and 20.0 mM. Longitudinal relaxation times (T1) for each solution and relaxivities (R1) for CP and Mito-CP were calculated using images from a standard spin echo sequence (TE=9 msec, TR=15 sec) at various inversion times (TI=100 msec incrementing by 100 msec to 4000 msec and 50, 150, 1050, 1150 msec).
T1 Relaxivity at 9.4 Tesla. Both solutions were diluted with Dulbecco's Phosphate Buffered Saline (DPBS) to the following concentrations: […], 1.0 mM, 10.0 mM, and 20.0 mM. Longitudinal relaxation times (T1) for each solution and relaxivities (R1) for CP and Mito-CP were calculated using a standard spin echo sequence (TE=9 msec, TR=15,000 msec) at various inversion times (TI=100 msec incrementing by 100 msec to 4000 msec and 50, 150, 1050, 1150 msec).
The longitudinal relaxivities of other nitroxides have been approximate […]. In order to assess the longitudinal relaxivity of CP and Mito-CP, concentrations were prepared with the expectation of this relaxivity. Two separate initial solutions of CP and Mito-CP were prepared. Longitudinal relaxivities were determined for both CP and Mito-CP at three field strengths. Relaxivities were obtained from non-linear fits of standard spin echo inversion recovery images calculated using Matlab.

Compound	EPR signal of blood following treatment with ferricyanide [1]	permeability to lipid membranes [2]	T1 / enhancement of treated mitochondria (uptake) [3]	induction of cancer cell apoptosis / cell viability (MTT) (MCF7 cells)	induction of cancer cell apoptosis / cell viability (MTT) (MDA-MB-231 cells)	induction of apoptosis / cell viability (MTT) [4]	longitudinal relaxivity R1 ([5]; 3.0 T) [mM⁻¹ s⁻¹]	time to elimination/reduction from the blood ([1]; rat, following bolus injection) [min]	in vivo half-life in blood ([1]; single rat, tail-vein bolus, monoexponential fit after peak)	increase in concentration within the mitochondria compared to the incubating solution ([3]; 10 uM incubating solution) [fold]	estimated mitochondrial associated tissue concentration ([3]; 10 uM incubating solution, calculated from relaxivity and T1) [mM]	longitudinal relaxivity R1 ([5]; 1.5 T) [mM⁻¹ s⁻¹]	longitudinal relaxivity R1 ([5]; 9.4 T) [mM⁻¹ s⁻¹]
CC1(C)CC(C(=O)O)C(C)(C)N1[O] (stereo not shown) [CP, carboxy-proxyl, reference compound]	not back to its initial level	impermeable to lipid membranes	did not enhance considerably	did not	did not	no influence inducing apoptosis	0.1546 ± 0.00567	–	–	–	–	–	–
(11-(3-carboxy-2,2,5,5-tetramethyl-1-pyrrolidinyloxy)-undecyl)-triphenylphosphonium bromide [Mito-CP]	signal was recovered	–	shortened T1, indicating uptake	induced cancer cell apoptosis	induced cancer cell apoptosis	no influence inducing apoptosis	0.2322 ± 0.0151	≤ 30	approximately 2 minutes	≥ 140	0.143	0.1643 ± 0.01314	0.2083 ± 0.0431
